Measured values taken from US20240279236A1, “COMPOUNDS AND METHODS OF TREATING TUBERCULOSIS” (Fimbrion Therapeutics, Inc., priority 2021, published 2024).

System: WT Mtb Erdman strain
Assay: Microplate Alamar Blue Assay (MABA), Mtb growth inhibition
Type: cell-based, Mycobacterium tuberculosis
Settings: Mycobacterium tuberculosis, ERDMAN, 168 h, Middlebrook 7H9 media, 7 days at 37° C. in 5% CO2

| SMILES | IC50 |
| --- | --- |
| Cc1nc2c(NCCCc3ccccc3)nc(-c3ccncn3)nc2s1 [Example 149, 2-methyl-N-(3-phenylpropyl)-5-(pyrimidin-4-yl)thiazolo[5,4-d]pyrimidin-7-amine] | 2 µM |
| CCOc1nc(N[C@@H]2C[C@H]2c2ccc(F)c(F)c2)c2cc(C)sc2n1 [Example 150, N-((1R,2S)-2-(3,4-difluorophenyl)cyclopropyl)-2-ethoxy-6-methylthieno[2,3-d]pyrimidin-4-amine] | 0.38 µM |
| COc1nc(N[C@@H]2C[C@H]2c2ccc(F)c(F)c2)c2cc(C)sc2n1 [Example 151, N-((1R,2S)-2-(3,4-difluorophenyl)cyclopropyl)-2-methoxy-6-methylthieno[2,3-d]pyrimidin-4-amine] | 0.26 µM |
| Cc1cc2c(NC/C=C/c3ccccc3)nc(C(F)(F)F)nc2s1 [Example 152, N-cinnamyl-6-methyl-2-(trifluoromethyl) thieno[2,3-d] pyrimidin-4-amine] | 0.44 µM |
| Cc1cc2c(N[C@@H]3C[C@H]3c3ccc(F)c(F)c3)nc(Oc3ccccc3)nc2s1 [Example 153, N-((1R,2S)-2-(3,4-difluorophenyl)cyclopropyl)-6-methyl-2-phenoxythieno[2,3-d]pyrimidin-4-amine] | > 10 µM |
| Cc1cc2c(NCCCc3ccccc3)nc(Sc3ccccc3)nc2s1 [Example 154, 6-methyl-N-(3-phenylpropyl)-2-(phenylthio)thieno[2,3-d]pyrimidin-4-amine] | > 10 µM |
| Cc1cc2c(N[C@@H]3C[C@H]3c3ccc(F)c(F)c3)nc(Sc3ccccc3)nc2s1 [Example 155, N-((1R,2S)-2-(3,4-difluorophenyl)cyclopropyl)-6-methyl-2-(phenylthio)thieno[2,3-d]pyrimidin-4-amine] | > 10 µM |
| Cc1cc2c(NCCCc3ccccc3)nc(N=[N+]=[N-])nc2s1 [Example 156, 2-azido-6-methyl-N-(3-phenylpropyl)thieno [2,3-d]pyrimidin-4-amine] | 0.16 µM |
| Cc1cc2c(NCCCc3ccncc3)nc(C(F)(F)F)nc2s1 [Example 157, 6-methyl-N-(3-(pyridin-4-yl)propyl)-2-(trifluoromethyl) thieno[2,3-d] pyrimidin-4-amine] | > 10 µM |
| Cc1cc2c(NCCCc3cccnc3)nc(C(F)(F)F)nc2s1 [Example 158, 6-methyl-N-(3-(pyridin-3-yl)propyl)-2-(trifluoromethyl) thieno[2,3-d] pyrimidin-4-amine] | > 6.9 µM |
| Cc1cc2c(NCCCc3ccccn3)nc(C(F)(F)F)nc2s1 [Example 159, 6-methyl-N-(3-(pyridin-2-yl)propyl)-2-(trifluoromethyl)thieno [2,3-d]pyrimidin-4-amine] | > 10 µM |
| Cc1cc2c(NCCC(c3ccccc3)c3ccccc3)nc(C(F)(F)F)nc2s1 [Example 160, N-(3,3-diphenylpropyl)-6-methyl-2-(trifluoromethyl) thieno[2,3-d] pyrimidin-4-amine] | 1.1 µM |
| COc1ccccc1CCCNc1nc(C(F)(F)F)nc2sc(C)cc12 [Example 161, N-(3-(2-methoxyphenyl)propyl)-6-methyl-2-(trifluoromethyl) thieno[2,3-d]pyrimidin-4-amine] | 4.4 µM |
| Cc1cc2c(NCC#Cc3ccccc3)nc(C(F)(F)F)nc2s1 [Example 162, 6-methyl-N-(3-phenylprop-2-yn-1-yl)-2-(trifluoromethyl) thieno[2,3-d] pyrimidin-4-amine] | 6 µM |
| Cc1cc2c(NCC(O)Cc3ccccc3)nc(C(F)(F)F)nc2s1 (stereo not drawn) [Example 163, 1-((6-methyl-2-(trifluoromethyl)thieno[2,3-d]pyrimidin-4-yl)amino)-3-phenylpropan-2-ol] | > 10 µM |
| Cc1cc2c(NCCCn3cccc3)nc(C(F)(F)F)nc2s1 [Example 164, N-(3-(1H-pyrrol-1-yl)propyl)-6-methyl-2-(trifluoromethyl) thieno[2,3-d] pyrimidin-4-amine] | 1.7 µM |
| Cc1cc2c(NCCCN3CCCc4ccccc43)nc(C(F)(F)F)nc2s1 [Example 165, N-(3-(3,4-dihydroquinolin-1(2H)-yl)propyl)-6-methyl-2-(trifluoromethyl) thieno[2,3-d] pyrimidin-4-amine] | 2 µM |
| Cc1cc2c(NCCCc3ccccc3)nc(C(F)(F)F)nc2s1 [Example 166, 6-methyl-N-(3-phenylpropyl)-2-(trifluoromethyl) thieno[2,3-d] pyrimidin-4-amine] | < 0.51 µM |
| Cc1cc2c(N[C@@H]3C[C@H]3c3ccccc3)nc(C(F)(F)F)nc2s1 [Example 167, 6-methyl-N-((1R,2S)-2-phenylcyclopropyl)-2-(trifluoromethyl) thieno[2,3-d] pyrimidin-4-amine] | 0.49 µM |
| Cc1cc2c(N[C@H]3C[C@@H]3c3ccccc3)nc(C(F)(F)F)nc2s1 [Example 168, 6-methyl-N-((1S,2R)-2-phenylcyclopropyl)-2-(trifluoromethyl) thieno[2,3-d] pyrimidin-4-amine] | 3.2 µM |
| Cc1cc2c(NC(CCc3ccccc3)C(F)(F)F)nc(C(F)(F)F)nc2s1 (stereo not drawn) [Example 169, 6-methyl-N-(1,1,1-trifluoro-4-phenylbutan-2-yl)-2-(trifluoromethyl) thieno[2,3-d] pyrimidin-4-amine] | > 10 µM |

| SMILES | IC50 |
| --- | --- |
| CCc1nc(NCCC(c2ccccc2)c2ccccc2)c2cc(C)sc2n1 [Example 170, N-(3,3-diphenylpropyl)-2-ethyl-6-methylthieno[2,3-d]pyrimidin-4-amine] | 0.36 µM |
| Cc1cc2c(NCCC(O)c3ccccc3)nc(C(F)(F)F)nc2s1 (stereo not drawn) [Example 171, 3-((6-methyl-2-(trifluoromethyl)thieno [2,3-d]pyrimidin-4-yl)amino)-1-phenylpropan-1-ol] | > 9.5 µM |
| Cc1cc2c(NCCCN(C)c3ccccc3)nc(C(F)(F)F)nc2s1 [Example 172, N1-methyl-N3-(6-methyl-2-(trifluoromethyl)thieno[2,3-d]pyrimidin-4-yl)-N1-phenylpropane-1,3-diamine] | 4.2 µM |
| Cc1cc2c(NCCCNc3ccccc3)nc(C(F)(F)F)nc2s1 [Example 173, N1-(6-methyl-2-(trifluoromethyl)thieno[2,3-d]pyrimidin-4-yl)-N3-phenylpropane-1,3-diamine] | 3.3 µM |
| Cc1cc2c(NCCCn3ccc4ccccc43)nc(C(F)(F)F)nc2s1 [Example 177, N-(3-(1H-indol-1-yl)propyl)-6-methyl-2-(trifluoromethyl) thieno[2,3-d] pyrimidin-4-amine] | 4.7 µM |
| Cc1cc2c(NCCCc3ccc(N(C)C)cc3)nc(C(F)(F)F)nc2s1 [Example 178, N-(3-(4-(dimethylamino)phenyl)propyl)-6-methyl-2-(trifluoromethyl) thieno[2,3-d] pyrimidin-4-amine] | 1.3 µM |
| Cc1cc2c(NCCCc3cccc(C(F)(F)F)c3)nc(C(F)(F)F)nc2s1 [Example 179, 6-methyl-2-(trifluoromethyl)-N-(3-(3-(trifluoromethyl)phenyl)propyl) thieno[2,3-d] pyrimidin-4-amine] | 1.7 µM |
| Cc1cc2c(NCCc3ccc4ccccc4n3)nc(C(F)(F)F)nc2s1 [Example 180, 6-methyl-N-(2-(quinolin-2-yl)ethyl)-2-(trifluoromethyl) thieno[2,3-d] pyrimidin-4-amine] | > 10 µM |
| Cc1cc2c(N[C@@H]3C[C@H]3c3ccc(F)cc3)nc(C(F)(F)F)nc2s1 [Example 181, N-((1R,2S)-2-(4-fluorophenyl)cyclopropyl)-6-methyl-2-(trifluoromethyl) thieno[2,3-d] pyrimidin-4-amine] | 1.3 µM |
| Cc1cc2c(NCCC(=O)Nc3ccccc3)nc(C(F)(F)F)nc2s1 [Example 182, 3-((6-methyl-2-(trifluoromethyl)thieno[2,3-d]pyrimidin-4-yl)amino)-N-phenylpropanamide] | > 10 µM |
| Cc1cc2c(NCCn3cccc3)nc(C(F)(F)F)nc2s1 [Example 183, N-(2-(1H-pyrrol-1-yl)ethyl)-6-methyl-2-(trifluoromethyl) thieno[2,3-d]pyrimidin-4-amine] | > 10 µM |
| Cc1cc2c(NCCCc3ccc(O)cc3)nc(C(F)(F)F)nc2s1 [Example 184, 4-(3-((6-methyl-2-(trifluoromethyl)thieno[2,3-d]pyrimidin-4-yl)amino)propyl) phenol] | > 10 µM |
| Cc1cc2c(NCCCc3ccc(F)cc3)nc(C(F)(F)F)nc2s1 [Example 185, N-(3-(4-fluorophenyl)propyl)-6-methyl-2-(trifluoromethyl) thieno[2,3-d] pyrimidin-4-amine] | 2.3 µM |
| Cc1cc2c(NCC(C)(C)Cc3ccccc3)nc(C(F)(F)F)nc2s1 [Example 186, N-(2,2-dimethyl-3-phenylpropyl)-6-methyl-2-(trifluoromethyl) thieno[2,3-d] pyrimidin-4-amine] | > 10 µM |
| Cc1cc2c(NCCC(C)c3ccccc3)nc(C(F)(F)F)nc2s1 (stereo not drawn) [Example 187, 6-methyl-N-(3-phenylbutyl)-2-(trifluoromethyl) thieno[2,3-d] pyrimidin-4-amine] | 9.1 µM |
| Cc1cc2c(NCCCc3ccccc3F)nc(C(F)(F)F)nc2s1 [Example 188, N-(3-(2-fluorophenyl)propyl)-6-methyl-2-(trifluoromethyl) thieno[2,3-d] pyrimidin-4-amine] | 5.1 µM |
| CCc1nc(NCCCc2ccccc2OC)c2cc(C)sc2n1 [Example 189, 2-ethyl-N-(3-(2-methoxyphenyl)propyl)-6-methylthieno[2,3-d]pyrimidin-4-amine] | 2.8 µM |
| CCc1nc(NCCCc2cccc(C(F)(F)F)c2)c2cc(C)sc2n1 [Example 190, 2-ethyl-6-methyl-N-(3-(3-(trifluoromethyl)phenyl)propyl) thieno[2,3-d] pyrimidin-4-amine] | 0.55 µM |
| CCc1nc(NCCCc2ccc(F)cc2)c2cc(C)sc2n1 [Example 191, 2-ethyl-N-(3-(4-fluorophenyl)propyl)-6-methylthieno[2,3-d]pyrimidin-4-amine] | 0.36 µM |
| CCc1nc(NCCCN2CCCc3ccccc32)c2cc(C)sc2n1 [Example 192, N-(3-(3,4-dihydroquinolin-1(2H)-yl)propyl)-2-ethyl-6-methylthieno[2,3-d]pyrimidin-4-amine] | 0.93 µM |
| CCc1nc(NCC#Cc2ccccc2)c2cc(C)sc2n1 [Example 193, 2-ethyl-6-methyl-N-(3-phenylprop-2-yn-1-yl)thieno[2,3-d]pyrimidin-4-amine] | 1.8 µM |
